In patent publication US12714709B2, “Pharmaceutical compositions comprising 2-[(4S)-8-fluoro-2-[4-(3-methoxyphenyl)piperazin-1-yl]-3-[2-methoxy-5-(trifluoromethyl)phenyl]-4H-quinazolin-4-yl]acetate and sodium ions” (priority 2020, dated 2026):
Structures can show the parent of a compound that is named as a salt. Where two headings read alike, the source gives them in different places.

Assays:
[1] = pH of letermovir forms and of letermovir free base with NaOH equivalents in water; assay type: physicochemical; conditions: for Initial pH / pH after 1 week: no NaOH added
Description: The pH value of the samples was measured with a calibrated pH meter EUTEGH CAKTON PH/Ion 510 Serial n° 172361 with a Polilyte lab electrode. The sample is stirred and the electrode is introduced. A measurement is performed until the pH value is stable. Between measurements the electrode is thoroughly rinsed with water. The pH measurements were performed with an analysis volume of ~1-2 mL and a defined temperature of 22° C.±3° C. A 3-point calibration of the pH meter was performed on a daily basis, by using buffers with pH 7.00, pH 4.01 and pH 10.01 (Hamilton Duracal buffer).
A first set of letermovir samples was prepared by dissolving letermovir free base, letermovir sodium salt amorphous, letermovir sodium salt trihydrate or letermovir sodium salt monohydrate in water to prepare the solutions with the concentration of 20 mg/mL and 100 mg/mL with respect to letermovir free base in order to determine the differences in the pH immediately after dissolution and after 1 week and to check precipitation effects and solubility.
A second set of samples was prepared by adding different equivalents of sodium hydroxide (0.84, 0.86, 0.88 and 0.9 eq.) to letermovir free base solutions. Blank solutions with the same amounts of water and sodium hydroxide equivalents and without letermovir were also prepared for comparative reasons.
(§1) Procedure: The corresponding amount of water was added to each sample with further addition of the respective equivalents of 1 M aqueous NaOH to the samples of second set (Table 4, Table 5 and Table 6). No addition of NaOH was applied to the first set of samples.
(§2) The suspensions were stirred at room temperature and the pH was determined immediately after the preparation and after 1 week. The solubility and precipitation effects were also checked (Table 7, Table 8 and Table 9). […]

[2] = Solubility/precipitation in water, visual inspection; assay type: physicochemical; conditions: for precipitation effects / dissolution over time, visual inspection: in water without sodium hydroxide, 20 and 100 mg/mL, over 1 week
Description: A first set of letermovir samples was prepared by dissolving letermovir free base, letermovir sodium salt amorphous, letermovir sodium salt trihydrate or letermovir sodium salt monohydrate in water to prepare the solutions with the concentration of 20 mg/mL and 100 mg/mL with respect to letermovir free base in order to determine the differences in the pH immediately after dissolution and after 1 week and to check precipitation effects and solubility. […]
as §1, §2

[3] = 20 mg/ml with respect to free base in water
[4] = 100 mg/ml with respect to free base in water
[5] = 20 mg/ml with respect to free base in water, Monohydrate
[6] = 100 mg/ml with respect to free base in water, Monohydrate
[7] = 20 mg/ml with respect to free base in water, Trihydrate
[8] = 100 mg/ml with respect to free base in water, Trihydrate

COc1cccc(N2CCN(C3=Nc4c(F)cccc4[C@H](CC(=O)O)N3c3cc(C(F)(F)F)ccc3OC)CC2)c1 [Free Base, 2-[(4S)-8-fluoro-2-[4-(3-methoxyphenyl)-piperazin-1-yl]-3-[2-methoxy-5-(trifluoromethyl)phenyl]-4H-quinazolin-4-yl]acetic acid]
Initial pH [1, 3]: 6.1 | pH after 1 week [1, 3]: 6.1 | Initial pH [1, 4]: 6.3 | pH after 1 week [1, 4]: 6.2 | pH values of the solutions/suspension in water ([1]; in water without sodium hydroxide, 20 and 100 mg/mL, initial and after 1 week, listed as letermovir free base): around 6 | Solubility/Precipitation ([2]; 20 mg/ml with respect to free base in water, no NaOH added): Insoluble | Solubility/Precipitation ([2]; 100 mg/ml with respect to free base in water, no NaOH added): Insoluble | precipitation effects / dissolution over time, visual inspection ([2]; listed as letermovir free base): did not dissolve

COc1cccc(N2CCN(C3=Nc4c(F)cccc4[C@H](CC(=O)[O-])N3c3cc(C(F)(F)F)ccc3OC)CC2)c1.[Na+] [Sodium Salt Amorphous]
Initial pH [1, 3]: 9.2 | pH after 1 week [1, 3]: 9.0 | Initial pH [1, 4]: 9.3 | pH after 1 week [1, 4]: 9.1 | Solubility/Precipitation [2]: Clear solution | precipitation effects / dissolution over time, visual inspection [2]: completely clear without precipitation effects

COc1cccc(N2CCN(C3=Nc4c(F)cccc4[C@H](CC(=O)O)N3c3cc(C(F)(F)F)ccc3OC)CC2)c1 [Sodium Salt Monohydrate]
Initial pH [1, 5]: 9.2 | pH after 1 week [1, 5]: 8.9 | Initial pH [1, 6]: 9.2 | pH after 1 week [1, 6]: 9.0 | Solubility/Precipitation ([2]; 20 mg/ml with respect to free base in water, no NaOH added, Monohydrate): Clear solution | Solubility/Precipitation ([2]; 100 mg/ml with respect to free base in water, no NaOH added, Monohydrate): Clear solution | precipitation effects / dissolution over time, visual inspection ([2]; listed as letermovir sodium salt monohydrate, Monohydrate): completely clear without precipitation effects

COc1cccc(N2CCN(C3=Nc4c(F)cccc4[C@H](CC(=O)O)N3c3cc(C(F)(F)F)ccc3OC)CC2)c1 [Sodium Salt Trihydrate]
Initial pH [1, 7]: 9.5 | pH after 1 week [1, 7]: 9.2 | Initial pH [1, 8]: 9.5 | pH after 1 week [1, 8]: 9.2 | Solubility/Precipitation ([2]; 20 mg/ml with respect to free base in water, no NaOH added, Trihydrate): Clear solution | Solubility/Precipitation ([2]; 100 mg/ml with respect to free base in water, no NaOH added, Trihydrate): Clear solution | precipitation effects / dissolution over time, visual inspection ([2]; listed as letermovir sodium dalt trihydrate, Trihydrate): completely clear without precipitation effects
